# From patent publication US9464064B2, “HCV helicase inhibitors and methods of use thereof” (University of Kansas, priority 2011, dated 2016)
# What was measured:
# NS3h_2a = target: T1, NS3h_2a (Hepatitis C virus genotype 2a, UniProt Q99IB8); assay: RNA helicase assay (three-stranded RNA substrate); type: biochemical, hepatitis C virus genotype 2a(JFH1)
# T1 construct: truncated C-terminally His-tagged NS3 proteins lacking the N-terminal protease, called NS3h; His-tag (C); made in house
# Method: To act as antivirals in cells, it is also important for an HCV helicase inhibitor to inhibit the activity of the NS3h on RNA. […] As with protein specificity, no differences were uncovered regarding substrate specificity for any of the compounds tested. In other words, none of the compounds preferred to act either on DNA or RNA substrates.
# [1] = Absorbance and fluorescence properties; type: physicochemical; conditions: for Absorbance ∈: extinction coefficient
# Excerpt: Most of the compounds isolated from the two yellow dyes were fluorescent, absorbing light around 340 nm, and emitting near 420 nm. Their extinction coefficient and peak absorption wavelengths increased as the length of the benzothiazole oligomer increased. Their relative fluorescence decreased with the length of the benzothiazole chain. None of the compounds absorbed light near either the absorption or emission wavelengths of the Cy5-labeled MBHA substrate, or the wavelengths where the fluorescence of ethidium bromide stained DNA, SYBER green I-stained DNA, NS3-catalyzed peptide cleavage, or ATP hydrolysis were measured.
# When directly compared with P4, the semi-synthetic primuline derivatives have a sharper absorbance peak centered near 360 nm, and they emit 3-15 times more light when excited at their absorbance maximum. […] Some compounds, like 12, stained both the cytoplasm and nucleus, but they also stained glass coverslips.
# NS3h_1b(con1) = target: T2, NS3h_1b(con1) (Hepatitis C virus genotype 1b, UniProt Q9WMX2); assay: RNA-stimulated ATP hydrolysis, pH 7.5, HCV; type: biochemical, hepatitis C virus genotype 1b(con1)
# T2 construct: truncated C-terminally His-tagged NS3 proteins lacking the N-terminal protease, called NS3h; His-tag (C); made in house
# T2 sequence (Q9WMX2 1192-1657): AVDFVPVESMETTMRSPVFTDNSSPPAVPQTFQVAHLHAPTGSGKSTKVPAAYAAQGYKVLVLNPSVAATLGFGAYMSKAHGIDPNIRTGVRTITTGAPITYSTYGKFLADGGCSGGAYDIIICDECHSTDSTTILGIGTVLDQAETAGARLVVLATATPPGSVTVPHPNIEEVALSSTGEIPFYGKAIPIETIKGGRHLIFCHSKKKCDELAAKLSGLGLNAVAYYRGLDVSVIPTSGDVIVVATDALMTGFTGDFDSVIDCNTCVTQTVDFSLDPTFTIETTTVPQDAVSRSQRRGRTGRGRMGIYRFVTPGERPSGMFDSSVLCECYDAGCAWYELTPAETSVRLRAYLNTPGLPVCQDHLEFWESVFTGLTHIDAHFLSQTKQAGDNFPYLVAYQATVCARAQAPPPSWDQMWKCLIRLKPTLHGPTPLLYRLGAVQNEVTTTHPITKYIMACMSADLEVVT
# Method: (§1) To compare the effect of compounds on HCV NS3h_1b (con1) to NS3h_DV2, reactions were performed with 2 nM of either enzyme in 25 mM Tris pH 7.5, 1.25 mM MgCl2, 1.0 mM ATP, 10% DMSO, 5 μg/ml BSA, 0.01% (v/v) TWEEN 20, 0.05 mM DTT, and 10 μM poly(U) RNA at 37° C.
# To further profile compound specificity, it was determined whether the compounds would inhibit homologous NS3h expressed by the Dengue virus (NS3h_DV2). […] The same assays were also repeated with HCV NS3h_1b(con1) for comparison. […] However, most of the primuline derivatives were relatively potent inhibitors of RNA-stimulated ATP hydrolysis catalyzed by the Dengue enzyme under the same conditions.
# NS3h_DV2 = target: T3, NS3h_DV2 (Dengue virus type 2, UniProt P29990); assay: RNA-stimulated ATP hydrolysis, pH 7.5, Dengue; type: biochemical; conditions: 10 μM poly(U) RNA, read-out: ATPase w/RNA NS3h_DV2 IC50 (μM) ± SD
# T3 construct: made in house
# T3 sequence (P29990 1646-2093): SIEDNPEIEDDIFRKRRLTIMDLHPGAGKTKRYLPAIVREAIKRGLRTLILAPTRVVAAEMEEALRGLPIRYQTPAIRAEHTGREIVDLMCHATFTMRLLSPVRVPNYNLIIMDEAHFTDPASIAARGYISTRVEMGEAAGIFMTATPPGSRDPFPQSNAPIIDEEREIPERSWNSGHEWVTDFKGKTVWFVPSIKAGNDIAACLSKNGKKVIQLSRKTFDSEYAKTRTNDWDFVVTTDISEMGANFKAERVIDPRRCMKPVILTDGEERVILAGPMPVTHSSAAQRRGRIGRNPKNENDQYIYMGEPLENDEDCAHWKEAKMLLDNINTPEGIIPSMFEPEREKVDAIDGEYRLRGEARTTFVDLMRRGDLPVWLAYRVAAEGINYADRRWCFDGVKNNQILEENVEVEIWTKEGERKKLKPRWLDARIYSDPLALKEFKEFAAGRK
# Method: as §1
# To further profile compound specificity, it was determined whether the compounds would inhibit homologous NS3h expressed by the Dengue virus (NS3h_DV2). […] The same assays were also repeated with HCV NS3h_1b(con1) for comparison.
# scNS4A-NS3 = scNS4A-NS3 (Hepatitis C virus genotype 1b, UniProt Q9WMX2); assay: NS3 protease assay (ENZOLYTE 520), full-length; type: biochemical, hepatitis C virus genotype 1b(con1); parameters: other: average of two sets; There is also a His tag
# Sequence of scNS4A-NS3 (Q9WMX2 1027-1657): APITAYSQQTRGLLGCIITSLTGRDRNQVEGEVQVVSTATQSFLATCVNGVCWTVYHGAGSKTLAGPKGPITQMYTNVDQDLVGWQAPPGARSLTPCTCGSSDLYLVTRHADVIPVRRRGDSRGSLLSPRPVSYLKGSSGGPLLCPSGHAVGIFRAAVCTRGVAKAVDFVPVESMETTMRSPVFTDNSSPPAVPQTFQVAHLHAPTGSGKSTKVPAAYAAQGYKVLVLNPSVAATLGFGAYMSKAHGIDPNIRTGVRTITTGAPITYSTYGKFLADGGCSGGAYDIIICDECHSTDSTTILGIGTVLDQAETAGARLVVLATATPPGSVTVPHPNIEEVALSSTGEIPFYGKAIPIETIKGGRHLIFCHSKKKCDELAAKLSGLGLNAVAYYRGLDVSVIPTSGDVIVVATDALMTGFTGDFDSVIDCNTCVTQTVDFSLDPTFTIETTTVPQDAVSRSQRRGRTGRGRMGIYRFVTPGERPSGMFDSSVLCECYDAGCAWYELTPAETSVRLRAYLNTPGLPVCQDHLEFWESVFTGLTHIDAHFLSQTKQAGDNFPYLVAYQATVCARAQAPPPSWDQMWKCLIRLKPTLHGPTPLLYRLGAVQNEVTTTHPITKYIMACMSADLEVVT
# Method: All oligonucleotides were purchased from Integrated DNA Technologies (IDT, Coralville, Iowa). Primuline derivatives were synthesized and purified as described herein. Three different NS3 proteins were used in this study. Two were truncated C-terminally His-tagged NS3 proteins lacking the N-terminal protease, called NS3h, the third was a full-length NS3 with the portion of NS4A needed for protease activation fused to its N-terminus, called scNS4A-NS3 (Howe, et al. (1999) Protein Sci. 8:1332-41), and the fourth was a 23 kDa scNS4A-NS3 protease fragment lacking the helicase domains, called scNS4A-NS3p (Protein One, Rockville, Md.). NS3h was expressed from two different HCV strains. NS3h_1b(con1) was from the con1 strain of genotype 1b (GENBANK accession AB114136), and NS3h_2a(JFH1) was from the JFH1 strain of HCV genotype 2a (GENBANK accession AJ238799). […] His-tagged recombinant NS3h_1b(con1), NS3h_2a(JFH1), and scNS4A-NS3 (also from genotype 1b(con1)) were expressed, and purified as previously described (Frick, et al. (2010) supra; Lam, et al. (2003) J. Virol. 77:3950-3961). The scNS4A-NS3p (genotype 1b) was from Protein One. A plasmid expressing NS3h from dengue virus strain 2 (NS3h_DV2)(GENBANK accession 2BMF) is known in the art (Xu, et al. (2005) J. Virol. 79:10278-10288), and used to express and purify NS3h_DV2 (Belon, et al. (2010) supra)
# All NS3 protease assays were carried out using the 5-Carboxyfluorescein-labeled substrate from the AnaSpec. ENZOLYTE 520 Protease Assay Kit (AnaSpec, San Jose, Calif.). Each assay contained 5 nM scNS4A-NS3 or 50 nM scNS4A-NS3p, […], 5% DMSO and 1× Anaspec HCV protease assay buffer. Assays were carried out in a total volume of 20 μl in black 384-well plates with fluorescence at 520 nm measured using a BMG FLUOstar Omega fluorescence spectrophotometer. Reactions were performed with eight concentrations of a two-fold dilution series of each compound (in duplicate) starting at 100 μM.
# T1 sequence (Q99IB8 1196-1661): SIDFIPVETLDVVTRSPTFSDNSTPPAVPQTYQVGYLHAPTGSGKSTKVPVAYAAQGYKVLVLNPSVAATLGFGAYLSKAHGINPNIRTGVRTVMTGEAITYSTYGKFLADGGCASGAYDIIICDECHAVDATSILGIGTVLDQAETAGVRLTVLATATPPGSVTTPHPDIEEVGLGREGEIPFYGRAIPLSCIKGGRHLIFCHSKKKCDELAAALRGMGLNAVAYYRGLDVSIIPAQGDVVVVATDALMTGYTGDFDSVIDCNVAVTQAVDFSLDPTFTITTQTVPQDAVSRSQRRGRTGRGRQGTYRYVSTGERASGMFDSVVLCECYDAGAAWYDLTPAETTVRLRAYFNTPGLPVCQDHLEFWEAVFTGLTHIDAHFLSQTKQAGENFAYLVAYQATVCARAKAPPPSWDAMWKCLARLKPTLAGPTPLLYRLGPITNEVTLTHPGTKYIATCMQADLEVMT
structure (smiles),measurement,setting,value
"Cc1ccc2nc(-c3ccc4nc(-c5ccc(NC(=O)c6ccc(N)cc6)cc5)sc4c3)sc2c1S(=O)(=O)O [Compound 6, 2′-(4-(4-aminobenzamido)phenyl)-6-methyl-[2,6′-bibenzo[d]thiazole]-7-sulfonic acid]",IC50,NS3h_2a,7 ± 3 µM
same,Absorbance λmax,[1],360 nm
same,Fluorescence Emmax,[1],429 nm
same,Fluorescence RFU@ 10 μM,[1],4 RFU
same,Absorbance ∈,[1],"36,600 M^−1cm^−1"
same,IC50,NS3h_1b(con1),140 ± 3 µM
same,IC50,NS3h_DV2,12 ± 4 µM
same,IC50,scNS4A-NS3,39 ± 17 µM
"Cc1ccc2nc(-c3ccc4nc(-c5ccc(NC(=O)c6ccc(F)cc6)cc5)sc4c3)sc2c1S(=O)(=O)O.N [Compound 7, 2′-(4-(4-fluorobenzamido)phenyl)-6-methyl-[2, bibenzo[d]thiazole]-7-sulfonic acid]",IC50,NS3h_2a,4 ± 2 µM
same,Absorbance λmax,[1],356 nm
same,Fluorescence Emmax,[1],496 nm
same,Fluorescence RFU@ 10 μM,[1],111 RFU
same,Absorbance ∈,[1],"24,950 M^−1cm^−1"
same,IC50,NS3h_1b(con1),73 ± 13 µM
same,IC50,NS3h_DV2,6 ± 1 µM
same,IC50,scNS4A-NS3,89 ± 47 µM
"Cc1ccc2nc(-c3ccc4nc(-c5ccc(NC(=O)c6ccc(C(F)(F)F)cc6)cc5)sc4c3)sc2c1S(=O)(=O)O [Compound 12, 6-methyl-2′-(4-(4-(trifluoromethyl)benzamido)phenyl)-[2,6′-bibenzo[d]thiazole]-7-sulfonic acid]",IC50,NS3h_2a,3 ± 1 µM
same,Absorbance λmax,[1],356 nm
same,Fluorescence Emmax,[1],498 nm
same,Fluorescence RFU@ 10 μM,[1],158 RFU
same,Absorbance ∈,[1],"42,750 M^−1cm^−1"
same,IC50,NS3h_1b(con1),16 ± 5 µM
same,IC50,NS3h_DV2,2 ± 0.5 µM
same,IC50,scNS4A-NS3,5 ± 1 µM
"Cc1ccc2nc(-c3ccc4nc(-c5ccc(NC(=O)c6ccc(C(C)(C)C)cc6)cc5)sc4c3)sc2c1S(=O)(=O)O [Compound 13, 2′-(4-(4-(tert-butyl)benzamido)phenyl)-6-methyl-[2,6′-bibenzo[d]thiazole]-7-sulfonic acid]",IC50,NS3h_2a,9 ± 9 µM
same,Absorbance λmax,[1],356 nm
same,Fluorescence Emmax,[1],502 nm
same,Fluorescence RFU@ 10 μM,[1],164 RFU
same,Absorbance ∈,[1],"37,150 M^−1cm^−1"
same,IC50,NS3h_1b(con1),150 ± 40 µM
same,IC50,NS3h_DV2,8 ± 1 µM
same,IC50,scNS4A-NS3,56 ± 23 µM
"Cc1ccc2nc(-c3ccc4nc(-c5ccc(NC(=O)c6ccc(Br)cc6)cc5)sc4c3)sc2c1S(=O)(=O)O [Compound 15, 2′-(4-(4-bromobenzamido)phenyl)-6-methyl-[2,6′-bibenzo[d]thiazole]-7-sulfonic acid]",IC50,NS3h_2a,4 ± 2 µM
same,Absorbance λmax,[1],356 nm
same,Fluorescence Emmax,[1],497 nm
same,Fluorescence RFU@ 10 μM,[1],209 RFU
same,Absorbance ∈,[1],"51,600 M^−1cm^−1"
same,IC50,NS3h_1b(con1),21 ± 1 µM
same,IC50,NS3h_DV2,3 ± 0.8 µM
same,IC50,scNS4A-NS3,6 ± 1 µM
"Cc1ccc2nc(-c3ccc4nc(-c5ccc(NC(=O)c6cccc(Cl)c6)cc5)sc4c3)sc2c1S(=O)(=O)O [Compound 17, 2′-(4-(3-chlorobenzamido)phenyl)-6-methyl-[2,6′-bibenzo[d]thiazole]-7-sulfonic acid]",IC50,NS3h_2a,6 ± 3.1 µM
same,Absorbance λmax,[1],356 nm
same,Fluorescence Emmax,[1],502 nm
same,Fluorescence RFU@ 10 μM,[1],215 RFU
same,Absorbance ∈,[1],"59,500 M^−1cm^−1"
same,IC50,NS3h_1b(con1),51 ± 3 µM
same,IC50,NS3h_DV2,4 ± 0.6 µM
same,IC50,scNS4A-NS3,> 100 µM
"Cc1ccc2nc(-c3ccc4nc(-c5ccc(NC(=O)c6ccc(Cl)c(Cl)c6)cc5)sc4c3)sc2c1S(=O)(=O)O [Compound 18, 2′-(4-(3,4-dichlorobenzamido)phenyl)-6-methyl-[2,6′-bibenzo[d]thiazole]-7-sulfonic acid]",IC50,NS3h_2a,4 ± 2 µM
same,Absorbance λmax,[1],356 nm
same,Fluorescence Emmax,[1],501 nm
same,Fluorescence RFU@ 10 μM,[1],203 RFU
same,Absorbance ∈,[1],"44,000 M^−1cm^−1"
same,IC50,NS3h_1b(con1),72 ± 13 µM
same,IC50,NS3h_DV2,4 ± 1 µM
same,IC50,scNS4A-NS3,13 ± 4 µM
"Cc1ccc2nc(-c3ccc4nc(-c5ccc(NC(=O)c6cc(C(F)(F)F)cc(C(F)(F)F)c6)cc5)sc4c3)sc2c1S(=O)(=O)O [Compound 24, 2′-(4-(3,5-bis(trifluoromethyl)benzamido)phenyl)-6-methyl-[2,6′-bibenzo[d]thiazole]-7-sulfonic acid]",IC50,NS3h_2a,14 ± 13 µM
same,Absorbance λmax,[1],355 nm
same,Fluorescence Emmax,[1],497 nm
same,Fluorescence RFU@ 10 μM,[1],121 RFU
same,Absorbance ∈,[1],"45,650 M^−1cm^−1"
same,IC50,NS3h_1b(con1),> 200 µM
same,IC50,NS3h_DV2,11 ± 2 µM
same,IC50,scNS4A-NS3,23 ± 15 µM
"Cc1ccc2nc(-c3ccc4nc(-c5ccc(NC(=O)c6ccc7nc(-c8ccc(N)cc8)sc7c6)cc5)sc4c3)sc2c1S(=O)(=O)O [Compound 35, 2′-(4-(2-(4-aminophenyl)benzo[d]thiazole-6-carboxamido)phenyl)-6-methyl-[2,6′-bibenzo[d]thiazole]-7-sulfonic acid]",IC50,NS3h_2a,6 ± 5.4 µM
same,Absorbance λmax,[1],361 nm
same,Fluorescence Emmax,[1],532 nm
same,Fluorescence RFU@ 10 μM,[1],2 RFU
same,Absorbance ∈,[1],"42,000 M^−1cm^−1"
same,IC50,NS3h_1b(con1),150 ± 2 µM
same,IC50,scNS4A-NS3,7 ± 1 µM
"Cc1ccc2nc(-c3ccc4nc(-c5ccc6nc(-c7ccc8nc(-c9ccc(N)cc9)sc8c7)sc6c5)sc4c3)sc2c1S(=O)(=O)O [Compound P4, 2′″-(4-aminophenyl)-6-methyl-[2,6′:2″,6′″-quaterbenzo[d]thiazole]-7-sulfonic acid]",IC50,NS3h_2a,3 ± 1.3 µM
same,Absorbance λmax,[1],382 nm
same,Fluorescence Emmax,[1],467 nm
same,Fluorescence RFU@ 10 μM,[1],3 RFU
same,Absorbance ∈,[1],"32,000 M^−1cm^−1"
same,IC50,NS3h_DV2,0.94 ± 0.7 µM
same,IC50,scNS4A-NS3,2 ± 1 µM
